From US4657897A, “N^6 -substituted adenosines for treating pain” (Warner-Lambert Company, priority 1985, dated 1987)

Legend:
adenosine A1 receptor = molecular target: T1, adenosine A1 receptor (Rattus norvegicus, UniProt P25099); experiment: Adenosine Receptor Binding--A1 Receptor Affinity (RBA1), [3H]-CHA binding, rat whole brain membranes; parameters: species or system rat (male Long Evans); details: 1.0 nM [3H]-CHA, 25° C., 1 h
T1 construct: Whole brain minus cerebellum and brainstem from male Long Evans rats; from tissue; host or cells: rat whole brain minus cerebellum and brainstem (male Long Evans), membranes
T1 sequence (P25099 1-326): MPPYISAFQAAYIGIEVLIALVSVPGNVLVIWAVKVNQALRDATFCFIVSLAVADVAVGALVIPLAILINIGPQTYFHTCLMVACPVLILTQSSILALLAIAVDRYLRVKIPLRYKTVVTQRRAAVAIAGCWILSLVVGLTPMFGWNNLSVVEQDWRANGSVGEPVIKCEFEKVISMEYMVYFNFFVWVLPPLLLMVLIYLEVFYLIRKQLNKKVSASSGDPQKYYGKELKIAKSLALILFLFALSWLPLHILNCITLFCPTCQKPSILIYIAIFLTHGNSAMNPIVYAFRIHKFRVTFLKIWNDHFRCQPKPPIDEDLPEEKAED
Method: Adenosine Receptor Binding--A1 Receptor Affinity (RBA1)
Whole brain minus cerebellum and brainstem from male Long Evans rats (150-200 g) was homogenized in 30 volumes of ice-cold 0.05M Tris-HCl buffer pH 7.7 using a Brinkman Polytron PT-10, (setting number 6 for 20 seconds) and centrifuged for ten minutes at 20,000×g (Sorvall RC-2), 4° C. The supernatant was discarded, and the pellet was resuspended and centrifuged as before. The pellet was resuspended in 20 ml Tris-HCl buffer containing two International Units/ml of adenosine deaminase (Sigma type III from calf intestinal mucosa), incubated at 37° C. for 30 minutes, then subsequently at 0° C. for ten minutes. The homogenate was again centrifuged, and the final pellet was resuspended in ice-cold 0.05M Tris-HCl buffer pH 7.7 to a concentration of 20 mg/ml original wet tissue weight and used immediately.
Tissue homogenate (10 mg/ml) was incubated in 0.05M Tris-HCl buffer pH 7.7 containing 1.0 nM [^3 H]-N^6 -cyclohexyladenosine[^3 H]-CHA) with or without test agents in triplicate for one hour at 25° C. Incubation volume was 2 ml. Unbound [^3 H]-CHA was separated by rapid filtration under reduced pressure through Whatman glass fiber (GF/B) filters. The filters were rinsed three times with 5 ml of ice cold 0.05M Tris-HCl buffer pH 7.7. The radio-labeled ligand retained on the filter was measured by liquid scintillation spectrophotometry after shaking the filters for one hour or longer on a mechanical shaker in 10 ml of Beckman Ready-Solv HP scintillation cocktail.
Nonspecific binding was defined as the binding which occurred in the presence of 1 mM theophylline. The concentration of test agent which inhibited 50% of the specific binding (IC50) was determined by nonlinear computer curve fit. The Scatchard plot was calculated by linear regression of the line obtained by plotting the amount of radioligand bound (pmoles/gram of tissue) [formula] Since the amount of radioligand bound was a small fraction of the total amount added, free radioligand was defined as the concentration (nM) of radioligand added to the incubation mixture. The Hill coefficient was calculated by linear regression of the line obtained by plotting the log of the bound radioligand vs the log of the [formula] The maximal number of binding sites (Bmax) was calculated from the Scatchard plot.

adenosine A2 receptor = molecular target: T2, adenosine A2 receptor (Rattus norvegicus, UniProt P30543); experiment: Adenosine Receptor Binding--A2 Receptor Affinity (RBA2), [3H]NECA binding, rat striatal membranes; parameters: species or system rat (mixed sex Sprague-Dawley; male Long-Evans); details: 4 nM [3H]NECA, 50 nM N6-cyclopentyladenosine, 25° C., 60 min
T2 construct: 5 mg original tissue weight of rat weight of rat striatal membranes; tissue Pel-Freez (Rogers, Ark.) for the brains; host or cells: rat striatum (Sprague-Dawley; Long-Evans gave essentially identical results), membranes
T2 sequence (P30543 whole entry): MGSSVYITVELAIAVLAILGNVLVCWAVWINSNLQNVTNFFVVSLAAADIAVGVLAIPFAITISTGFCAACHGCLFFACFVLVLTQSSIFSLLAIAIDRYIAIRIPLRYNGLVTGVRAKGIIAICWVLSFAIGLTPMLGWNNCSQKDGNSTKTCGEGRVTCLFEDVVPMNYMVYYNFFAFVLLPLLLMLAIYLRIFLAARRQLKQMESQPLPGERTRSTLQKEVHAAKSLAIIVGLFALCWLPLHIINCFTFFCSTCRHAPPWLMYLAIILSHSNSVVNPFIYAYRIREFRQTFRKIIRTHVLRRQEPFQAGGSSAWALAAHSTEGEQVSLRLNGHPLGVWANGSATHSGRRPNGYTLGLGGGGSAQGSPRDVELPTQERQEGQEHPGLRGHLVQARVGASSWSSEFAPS
Method: Adenosine Receptor Binding--A2 Receptor Affinity (RBA2)
Brains from 200-500 g mixed sex Sprague-Dawley rats were purchased from Pel-Freez (Rogers, Ark.). […] Brains were thawed and then kept on ice while the striata were dissected out. Striata were disrupted in 10 vol of ice-cold 50 mM Tris.HCl (pH 7.7 at 25° C., pH 8.26 at 5° C.) (Tris) for 30 seconds in a Polytron PT-10 (Brinkmann) at setting 5. The suspension was centrifuged at 50,000 xg for ten minutes, the supernatant discarded, the pellet resuspended in 10 vol ice-cold Tris as above, recentrifuged, resuspended at 1 g/5 ml, and stored in plastic vials at -70° C. […] When needed, tissue was thawed at room temperature, disrupted in a Polytron, and kept on ice until used.
Test compounds were dissolved at 10 mM in dimethylsulfoxide on the same day as the experiment, and diluted in dimethylsulfoxide to 100× the final incubation concentration. […] [^3 H]NECA was diluted to 40 nM in Tris. […] After all additions, the rack of tubes was vortexed, and the tubes were then incubated for 60 min at 25° C. in a shaking water bath. The rack of tubes was vortexed an additional time halfway through the incubation.
Incubations were terminated by filtration through 2.4 cm GF/B filters under reduced pressure. Each tube was filtered as follows: the contents of the tube were poured onto the filter, 4 ml of ice-cold Tris were added to the tube and the contents poured onto the filter, and the filter was washed twice with 4 ml of ice-cold Tris. The filtration was complete in about twelve seconds. Filters were put in scintillation vials, 8 ml of Formula 947 scintillation fluid added, and the vials left overnight, shaken, and counted in a liquid scintillation counter at 40% efficiency.
The IC50 was calculated by weighted nonlinear least squares curve-fitting to the mass-action equation. [formula] where Y is cpm bound
T is cpm total binding without drug
S is cpm specific binding without drug
D is the concentration of drug
K is the IC50 of the drug
Weighting factors were calculated under the assumption that the standard deviation was proportional to the predicted value of Y. Nonspecific binding was treated as a very large (infinite) concentration of drug in the computer analysis.

[1] = Mouse Activity and Screen Test (MAST), screen test failure (ST); type: in vivo, mouse (Swiss-Webster, male); details: Mus musculus, ip; lowest dose at which an A rating is achieved; screen test; intraperitoneal, 1 h prior to testing; read-out: MAST ST LAD
Method: Treatments are administered intraperitoneally one hour prior to testing. […] Compounds are dissolved or suspended in 0.2% Methocel. Control animals are injected with Methocel.
The compounds are identified in the Examples.

Row | SMILES | IC50 (adenosine A1 receptor) | IC50 (adenosine A2 receptor) | minimal effective dose [1]
1 | Nc1nc(NCC(O)(c2ccccc2)c2ccccc2)c2ncn([C@@H]3O[C@H](CO)[C@@H](O)[C@H]3O)c2n1 [Example 23, N^6-(2,2-Diphenyl-2-hydroxyethyl)-2-aminoadenosine] | 0.069 µM | 0.293 µM | > 100 mg/kg
2 | COC(=O)C(CNc1ncnc2c1ncn2[C@@H]1O[C@H](CO)[C@@H](O)[C@H]1O)(c1ccccc1)c1ccccc1 [Example 24, N^6-(2-Carbomethoxy-2,2-diphenylethyl)adenosine] | 0.079 µM | 4.6 µM | > 30 mg/kg
3 | CC(=O)OC[C@H]1O[C@@H](n2cnc3c(NCC(c4ccccc4)c4ccccc4)ncnc32)[C@H](OC(C)=O)[C@@H]1OC(C)=O [Example 25, 2',3',5'-Tri-O-acetyl-N^6-(2,2-diphenylethyl)adenosine] | 0.053 µM | 0.166 µM | > 100 mg/kg
4 | O=C(OC[C@H]1O[C@@H](n2cnc3c(NCC(c4ccccc4)c4ccccc4)ncnc32)[C@H](OC(=O)c2ccccc2)[C@@H]1OC(=O)c1ccccc1)c1ccccc1 [Example 26, 2',3',5'-Tri-O-benzoyl-N^6-(2,2-diphenylethyl)adenosine] | 1.23 µM | 3.84 µM | > 100 mg/kg
5 | CC(=O)OC[C@H]1O[C@@H](n2cnc3c(NCC(c4ccccc4)c4ccccc4)nc(Cl)nc32)[C@H](OC(C)=O)[C@@H]1OC(C)=O [Example 27, 2',3',5'-Tri-O-acetyl-N^6-(2,2-diphenylethyl)-2-chloroadenosine] | 30.9 µM | 6.82 µM | > 100 mg/kg
6 | CC1(C)O[C@@H]2[C@H](O1)[C@@H](CO)O[C@H]2n1cnc2c(NCC(c3ccccc3)c3ccccc3)ncnc21 [Example 29, 2',3'-O-Isopropylidene-N^6-(2,2-diphenylethyl)adenosine] | 0.242 µM | 0.919 µM | > 100 mg/kg
